Data as given in US6737383B1, “Herbicidal oxadiazolidines” (priority 1999, dated 2004).

How the values were obtained:
bamyardgrass = assay: Test B flood test barnyardgrass; assay type: in vivo, Echinochloa crus-galli
Outline: (§1)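 Each value is a visual injury score relative to controls, with 10 meaning complete control and 0 no effect. Evaluation took place twelve to sixteen days after the 2-leaf-stage plants were treated and kept in the greenhouse.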

rape = assay: Test B pre/postemergence rape; assay type: in vivo, Brassica napus
Outline: (§2)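 Response is a visual 0-to-10 score relative to untreated plants, where 0 means no effect and 10 means complete control, taken twelve to sixteen days after application. Treatments went onto soil at planting and onto foliage of 1- to 4-leaf plants, using a surfactant-containing non-phytotoxic solvent.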

giant foxtail = assay: Test B pre/postemergence giant foxtail; assay type: in vivo, Setaria faberii
Outline: as §2

soybean = assay: Test B pre/postemergence soybean; assay type: in vivo, Glycine max
Outline: as §2

sugar beet = assay: Test B pre/postemergence sugar beet; assay type: in vivo, Beta vulgaris
Outline: as §2

duck salad = assay: Test B flood test duck salad; assay type: in vivo, Heteranthera limosa
Outline: as §1

wild oat = assay: Test B pre/postemergence wild oat; assay type: in vivo, Avena fatua
Outline: as §2

purple nutsedge = assay: Test B pre/postemergence purple nutsedge; assay type: in vivo, Cyperus rotundus
Outline: as §2

smallflower flatsedge = assay: Test B flood test smallflower flatsedge; assay type: in vivo, Cyperus difformis
Outline: as §1

corn = assay: Test B pre/postemergence corn; assay type: in vivo, Zea mays
Outline: as §2

pigweed = assay: Test B pre/postemergence pigweed; assay type: in vivo, Amaranthus retroflexus
Outline: as §2

surinam grass = assay: Test B pre/postemergence surinam grass; assay type: in vivo, Brachiaria decumbens
Outline: as §2

cocklebur = assay: Test B pre/postemergence cocklebur; assay type: in vivo, Xanthium strumarium
Outline: as §2

morningglory = assay: Test B pre/postemergence morningglory; assay type: in vivo, Ipomoea hederacea
Outline: as §2

rice = assay: Test B flood test rice; assay type: in vivo, Oryza sativa
Outline: as §1

crabgrass = assay: Test B pre/postemergence crabgrass; assay type: in vivo, Digitaria sanguinalis
Outline: as §2

[1] = Postemergence, Rate 62 g/ha, scale 0 to 10, 0 is no effect, 10 is complete control
[2] = Rate 31 g/ha, Postemergence section (flood test species), scale 0 to 10
[3] = Rate 125 g/ha, Postemergence section (flood test species), scale 0 to 10, 0 no effect, 10 complete control
[4] = flood test, listed under Postemergence, Rate 250 g/ha, scale 0 to 10, 0 no effect, 10 complete control
[5] = Postemergence, Rate 250 g/ha, scale 0 to 10, 0 no effect, 10 complete control
[6] = Preemergence, Rate 31 g/ha, visual rating, scale 0 to 10 (0 no effect, 10 complete control)
[7] = Preemergence, Rate 62 g/ha, scale 0 to 10, 0 is no effect, 10 is complete control
[8] = Preemergence, Rate 125 g/ha, scale 0 to 10 (0 no effect, 10 complete control)
[9] = Preemergence, Rate 250 g/ha, scale of 0 to 10 where 0 is no effect and 10 is complete control
[10] = Rate 31 g/ha, Postemergence, scale 0 to 10
[11] = Rate 125 g/ha, Postemergence, scale 0 to 10, 0 no effect, 10 complete control

## CC(C)N(C(=O)n1oc(=O)n(-c2ccc(F)cc2F)c1=O)c1ccc(F)cc1F [Compound 22]
bamyardgrass; [1]
  Barnyardgrass plant response rating: 0
bamyardgrass; [2]
  Barnyardgrass plant response rating: 0
bamyardgrass; [3]
  Barnyardgrass plant response rating: 0
bamyardgrass; [4]
  Barnyardgrass plant response rating: 0
rape; [1]
  Rape plant response rating: 0
rape; [5]
  Rape plant response rating: 0
rape; [6]
  Rape plant response rating: 0
rape; [7]
  Plant response rating, Rape: 0
rape; [8]
  Plant response rating, Rape: 3
rape; [9]
  Plant response rating, Rape: 3
rape; [10]
  Rape plant response rating: 0
rape; [11]
  Rape plant response rating: 0
Giant foxtail; [1]
  Giant foxtail plant response rating: 0
Giant foxtail; [5]
  Giant foxtail plant response rating: 4
Giant foxtail; [6]
  Giant foxtail plant response rating: 3
Giant foxtail; [7]
  Plant response rating, Giant foxtail: 3
Giant foxtail; [8]
  Plant response rating, Giant foxtail: 4
Giant foxtail; [9]
  Plant response rating, Giant foxtail: 7
Giant foxtail; [10]
  Giant foxtail plant response rating: 0
Giant foxtail; [11]
  Giant foxtail plant response rating: 2
soybean; [1]
  Soybean plant response rating: 3
soybean; [5]
  Soybean plant response rating: 4
soybean; [6]
  Soybean plant response rating: 0
soybean; [7]
  Plant response rating, Soybean: 0
soybean; [8]
  Plant response rating, Soybean: 0
soybean; [9]
  Plant response rating, Soybean: 0
soybean; [11]
  Soybean plant response rating: 3
Sugar beet; [1]
  Sugarbeets plant response rating: 0
Sugar beet; [5]
  Sugarbeets plant response rating: 0
Sugar beet; [6]
  Sugarbeets plant response rating: 0
Sugar beet; [7]
  Plant response rating, Sugarbeets: 0
Sugar beet; [8]
  Plant response rating, Sugarbeets: 4
Sugar beet; [9]
  Plant response rating, Sugarbeets: 7
Sugar beet; [11]
  Sugarbeets plant response rating: 0
Duck salad; [1]
  Ducksalad plant response rating: 0
Duck salad; [2]
  Ducksalad plant response rating: 0
Duck salad; [3]
  Ducksalad plant response rating: 0
Duck salad; [4]
  Ducksalad plant response rating: 0
Wild oat; [1]
  Wild oats plant response rating: 0
Wild oat; [5]
  Wild oats plant response rating: 1
Wild oat; [6]
  Wild oats plant response rating: 0
Wild oat; [8]
  Plant response rating, Wild oats: 0
Wild oat; [9]
  Plant response rating, Wild oats: 0
Wild oat; [11]
  Wild oats plant response rating: 0
Purple nutsedge; [1]
  Nutsedge plant response rating: 0
Purple nutsedge; [5]
  Nutsedge plant response rating: 0
Purple nutsedge; [6]
  Nutsedge plant response rating: 0
Purple nutsedge; [7]
  Plant response rating, Nutsedge: 0
Purple nutsedge; [8]
  Plant response rating, Nutsedge: 0
Purple nutsedge; [9]
  Plant response rating, Nutsedge: 0
Purple nutsedge; [10]
  Nutsedge plant response rating: 0
Purple nutsedge; [11]
  Nutsedge plant response rating: 0
Smallflower flatsedge; [1]
  S. Flatsedge plant response rating: 0
Smallflower flatsedge; [3]
  S. Flatsedge plant response rating: 0
Smallflower flatsedge; [4]
  S. Flatsedge plant response rating: 4
corn; [1]
  Corn plant response rating: 0
corn; [5]
  Corn plant response rating: 0
corn; [6]
  Corn plant response rating: 0
corn; [7]
  Plant response rating, Corn: 0
corn; [8]
  Plant response rating, Corn: 0
corn; [9]
  Plant response rating, Corn: 2
corn; [10]
  Corn plant response rating: 0
corn; [11]
  Corn plant response rating: 0
pigweed; [1]
  Redroot pigweed plant response rating: 0
pigweed; [5]
  Redroot pigweed plant response rating: 2
pigweed; [6]
  Redroot pigweed plant response rating: 0
pigweed; [7]
  Plant response rating, Redroot pigweed: 0
pigweed; [8]
  Plant response rating, Redroot pigweed: 2
pigweed; [9]
  Plant response rating, Redroot pigweed: 5
pigweed; [10]
  Redroot pigweed plant response rating: 0
pigweed; [11]
  Redroot pigweed plant response rating: 1
Surinam grass; [1]
  B. signalgrass plant response rating: 0
Surinam grass; [5]
  B. signalgrass plant response rating: 2
Surinam grass; [6]
  B. signalgrass plant response rating: 0
Surinam grass; [7]
  Plant response rating, B. signalgrass: 0
Surinam grass; [8]
  Plant response rating, B. signalgrass: 2
Surinam grass; [9]
  Plant response rating, B. signalgrass: 4
Surinam grass; [10]
  B. signalgrass plant response rating: 0
Surinam grass; [11]
  B. signalgrass plant response rating: 0
cocklebur; [1]
  Cocklebur plant response rating: 0
cocklebur; [5]
  Cocklebur plant response rating: 0
cocklebur; [6]
  Cocklebur plant response rating: 0
cocklebur; [7]
  Plant response rating, Cocklebur: 0
cocklebur; [8]
  Plant response rating, Cocklebur: 0
cocklebur; [9]
  Plant response rating, Cocklebur: 0
cocklebur; [10]
  Cocklebur plant response rating: 0
cocklebur; [11]
  Cocklebur plant response rating: 0
morningglory; [1]
  Morningglory plant response rating: 0
morningglory; [5]
  Morningglory plant response rating: 2
morningglory; [6]
  Morningglory plant response rating: 0
morningglory; [7]
  Plant response rating, Morningglory: 0
morningglory; [8]
  Plant response rating, Morningglory: 0
morningglory; [9]
  Plant response rating, Morningglory: 0
morningglory; [10]
  Morningglory plant response rating: 0
morningglory; [11]
  Morningglory plant response rating: 2
rice; [1]
  Rice plant response rating: 0
rice; [2]
  Rice plant response rating: 0
rice; [3]
  Rice plant response rating: 0
rice; [4]
  Rice plant response rating: 0
crabgrass; [1]
  Crabgrass plant response rating: 0
crabgrass; [5]
  Crabgrass plant response rating: 9
crabgrass; [6]
  Crabgrass plant response rating: 3
crabgrass; [7]
  Plant response rating, Crabgrass: 3
crabgrass; [8]
  Plant response rating, Crabgrass: 4
crabgrass; [9]
  Plant response rating, Crabgrass: 8
crabgrass; [10]
  Crabgrass plant response rating: 0
crabgrass; [11]
  Crabgrass plant response rating: 4
